Reference: ChEMBL document CHEMBL5260832, “Hepatoprotective natural triterpenoids” (Eur J Med Chem, 2018)

Legend:
[1] = system: Hepatocyte; assay: Hepatoprotective activity against D-GaIN-induced toxicity in mouse hepatocytes at 30 uM relative to control; type: functional
[2] = system: Hepatocyte; assay: Hepatoprotective activity against D-GaIN-induced toxicity in mouse hepatocytes at 10 uM relative to control; type: functional
[3] = system: Hepatocyte; assay: Hepatoprotective activity against D-GaIN-induced toxicity in mouse hepatocytes at 100 uM relative to control; type: functional
[4] = system: Hepatocyte; assay: Hepatoprotective activity against D-GaIN-induced toxicity in mouse hepatocytes at 3 uM relative to control; type: functional
[5] = system: Hepatocyte; assay: Hepatoprotective activity against CCL4-induced rat hepatocyte toxicity assessed as increase in GSH level at 0.25 mg/ml (reference value: 3.7 mg/g); type: functional
[6] = system: Hepatocyte; assay: Hepatoprotective activity against CCL4-induced rat hepatocyte toxicity assessed as decrease in AST level at 0.25 mg/ml (reference value: 243.5 U/L); type: functional
[7] = system: Hepatocyte; assay: Hepatoprotective activity against CCL4-induced rat hepatocyte toxicity assessed as decrease in ALT level at 0.25 mg/ml (reference value: 119.0 U/L); type: functional
[8] = system: Hepatocyte; assay: Hepatoprotective activity against CCL4-induced rat hepatocyte toxicity assessed as increase in SOD level at 0.25 mg/ml (reference value: 125.8 U/L); type: functional
[9] = system: Hepatocyte; assay: Hepatoprotective activity against CCL4-induced rat hepatocyte toxicity assessed as decrease in MDA level at 0.25 mg/ml (reference value: 9.22 nmol/mg); type: functional
[10] = system: Hepatocyte; assay: Hepatoprotective activity against CCL4-induced rat hepatocyte toxicity assessed as decrease in IL-1beta level at 0.1 mg/mL relative to control; type: functional; set-up: scale not given: the % may be the effect or the level left
[11] = system: HepG2; assay: Hepatoprotective activity against H2O2-induced cell death in human HepG2 cells assessed as reduction in ALT level at 74.60 uM preincubated for 1 hr followed by H2O2-stimulation and measured after 24 hrs; type: functional; conditions: dose 74.6 µM
[12] = system: HepG2; assay: Hepatoprotective activity against H2O2-induced cell death in human HepG2 cells assessed as reduction in AST level at 18.65 uM preincubated for 1 hr followed by H2O2-stimulation and measured after 24 hrs; type: functional
[13] = system: HepG2; assay: Hepatoprotective activity against H2O2-induced cell death in human HepG2 cells assessed as reduction in AST level at 74.60 uM preincubated for 1 hr followed by H2O2-stimulation and measured after 24 hrs; type: functional; conditions: dose 74.6 µM
[14] = species: Mus musculus; assay: Protection against D-GaIN/TNFalpha induced cell death in mouse liver parenchymal cells assessed as reduction in GPT level measured after 2 hrs; type: functional, cell-based
[15] = system: Huh-7; assay: Protection against CCl4-induced cell damage in human Huh-7 cells assessed as reduction in ALT level at […] (reference value: 40.2 U/ml); type: functional; set-up: dose or concentration left out as unconfirmed
[16] = system: Mus musculus; assay: Hepatoprotective activity against CCl4-induced liver injury mouse model assessed as reduction in AST at 20 ug/mL, ip relative to control (reference value: 9.27 IU/L); type: functional; conditions: dose 20.0 µg/ml
[17] = system: Mus musculus; assay: Hepatoprotective activity against CCl4-induced liver injury mouse model assessed as reduction in MDA level at 20 ug/mL, ip relative to control (reference value: 9.27 IU/L); type: functional; conditions: dose 20.0 µg/ml
[18] = system: Hepatocyte; assay: Hepatoprotective activity against CCL4-induced rat hepatocyte toxicity assessed as decrease in GPT level at 3.33 mg/mL preincubated for 30 mins followed by CCL4 addition and measured after 180 mins by colorimetric method; type: functional; conditions: time 210.0 min
[19] = system: Hepatocyte; assay: Hepatoprotective activity against CCL4-induced rat hepatocyte toxicity assessed as decrease in GOT level at 3.33 mg/mL preincubated for 30 mins followed by CCL4 addition and measured after 180 mins by colorimetric method; type: functional; conditions: time 210.0 min
[20] = system: Huh-7; assay: Hepatoprotective activity against CCL4-induced mouse model in human Huh-7 cells assessed as decrease in ALT level at 100 ug/mL; type: functional; conditions: dose 100.0 µg/ml
[21] = system: Mus musculus; assay: Hepatoprotective activity against CCl4-induced liver injury mouse model assessed as increase in SOD level at 20 ug/mL, ip relative to control (reference value: 5.89 IU/L); type: functional; conditions: dose 20.0 µg/ml
[22] = system: Hepatocyte; assay: Hepatoprotective activity against CCL4-induced rat hepatocyte toxicity assessed as decrease in ALP level at 3.33 mg/mL preincubated for 30 mins followed by CCL4 addition and measured after 180 mins by colorimetric method; type: functional; conditions: time 210.0 min
[23] = system: Mus musculus; assay: Hepatoprotective activity against D-GaIN/LPS induced liver injury mouse model assessed as reduction in AST at 100 mg/kg, ip relative to control; type: functional; set-up: scale not given: the % may be the effect or the level left
[24] = system: Mus musculus; assay: Hepatoprotective activity against CCl4-induced liver injury mouse model assessed as reduction in ALT at 20 ug/mL, ip relative to control (reference value: 13.23 IU/L); type: functional; conditions: dose 20.0 µg/ml
[25] = system: Mus musculus; assay: Hepatoprotective activity against D-GaIN/LPS induced liver injury mouse model assessed as reduction in LDH level at 100 mg/kg, ip relative to control; type: functional; set-up: scale not given: the % may be the effect or the level left
[26] = system: Mus musculus; assay: Hepatoprotective activity against D-GaIN/LPS induced liver injury mouse model assessed as reduction in ALT at 100 mg/kg, ip relative to control; type: functional; set-up: scale not given: the % may be the effect or the level left
[27] = system: Hepatocyte; assay: Hepatoprotective activity against D-GaIN-induced toxicity in mouse hepatocytes
[28] = system: Mus musculus; assay: Hepatoprotective activity in mouse model of D-GaIN/LPS-induced liver injury assessed as inhibition of sALT level secretion at 100 mg/kg, po relative to control; type: functional
[29] = system: Mus musculus; assay: Hepatoprotective activity in mouse model of D-GaIN/LPS-induced liver injury assessed as inhibition of sAST secretion at 100 mg/kg, po relative to control; type: functional
[30] = system: Hepatocyte; assay: Hepatoprotective activity against D-GaIN-induced toxicity in mouse hepatocyte relative to control; type: functional, cell-based

CC1(C)CC[C@]2(C(=O)O[C@@H]3O[C@H](CO)[C@@H](O)[C@H](O)[C@H]3O)CC[C@]3(C)C(=CC[C@@H]4[C@@]5(C)C[C@@H](O)[C@H](O)C(C)(C)[C@@H]5CC[C@]43C)[C@@H]2[C@@H]1O
Activity [1]: 25.2% | Activity [2]: 24.5% | Activity [3]: 15.6% | Activity [4]: 11.1%

CC1(C)CC[C@]2(C(=O)O[C@@H]3O[C@H](CO[C@@H]4O[C@H](CO)[C@@H](O)[C@H](O)[C@H]4O)[C@@H](O)[C@H](O)[C@H]3O)CC[C@]3(C)C(=CC[C@@H]4[C@@]5(C)CCC(O[C@@H]6OC[C@H](O)[C@H](O)[C@H]6O)[C@@](C)(CO)[C@@H]5CC[C@]43C)[C@@H]2C1 (stereo not given in full)
Activity [5]: 5.3 mg/g | Activity [6]: 167.5 U/L | Activity [7]: 82.1 U/L | Activity [8]: 161.4 U/L | Activity [9]: 9.22 nmol/mg

C[C@H]1O[C@@H](O[C@H]2CC[C@@]3(C)[C@@H](CC[C@]4(C)[C@@H]3C=C[C@]35OC[C@@]6(CCC(C)(C)C[C@H]63)[C@@H](O)C[C@]54C)[C@]2(C)CO)[C@H](O[C@@H]2O[C@H](CO)[C@@H](O)[C@H](O)[C@H]2O)[C@@H](O[C@@H]2O[C@H](CO)[C@@H](O)[C@H](O)[C@H]2O)[C@H]1O [BUDDLEJASAPONIN IV]
Activity [10]: 74.96%

C=C(C)[C@@H]1C[C@H](O)C2=C(C(=O)C[C@]3(C)[C@@H]([C@H](C)CCC(=O)OC)CC[C@@]23C)[C@@]1(C)CCC(=O)O
Activity [11]: 7.22 U/L | Activity [12]: 19.56 U/L | Activity [13]: 10.53 U/L

CC(=O)OC[C@H]1O[C@@H](O[C@H]2C[C@]3(C)[C@H](C[C@@H](O)[C@@H]4[C@@H]([C@]5(C)CC[C@@H](C(C)(C)O)O5)CC[C@]43C)[C@@]3(C)CC[C@H](O)C(C)(C)[C@H]23)[C@H](O[C@@H]2O[C@@H](C)[C@H](O)[C@@H](O)[C@H]2O)[C@@H](O)[C@@H]1O
IC50 [14]: 47 µM

C[C@@H]1CC[C@]2(C(=O)O[C@@H]3O[C@H](CO)[C@@H](O)[C@H](O)[C@H]3O)CC[C@]3(C)C(=CC[C@@H]4[C@@]5(C)C[C@H](O)[C@H](O)C(C)(C)[C@@H]5CC[C@]43C)[C@@H]2[C@]1(C)O
Activity [15]: 15.4 U/ml

SILYMARIN
Activity [16]: 4.24 IU/L | Activity [17]: 3.84 nmol/mL | Activity [18]: 11.3 IU/L | Activity [19]: 18.5 IU/L | Activity [20]: 10.2 U/ml | Activity [21]: 21.7 U/ml | Activity [22]: 13.7 IU/L | Activity [23]: 66% | Activity [24]: 4.82 U/ml | Activity [25]: 43% | Activity [26]: 68%

C[C@@H]1CC[C@]2(C(=O)O[C@@H]3O[C@H](CO)[C@@H](O)[C@H](O)[C@H]3O)CC[C@]3(C)C(=CC[C@@H]4[C@@]5(C)C[C@@H](O)C(=O)C(C)(C)[C@@H]5CC[C@]43C)[C@@H]2[C@]1(C)O
IC50 [27]: 46.7 µM | inhibition in vivo at 100 mg/kg [28]: 78.4% | inhibition in vivo at 100 mg/kg [29]: 76.8% | IC50 [30]: 46.7 µM
